Experimental findings from ChEMBL document CHEMBL1131834, “Synthesis and antitumoral activities of marine ent-chromazonarol and related compounds” (Bioorg Med Chem Lett, 1999) are described below.

Assay type in all cases: functional, cell-based
One test relates to A549. Nature of the test: Antitumoral activity was assayed against A-549 cell line. Conditions: Homo sapiens.
The next test has as its system HT-29. Nature of the test: Antitumoral activity was assayed against HT-29 cell line. Conditions: Homo sapiens.
The subject of the next test is SK-MEL-28. The experiment in a line: Antitumoral activity was assayed against MEL-28 cell line. Conditions: Homo sapiens.
The test system of another test is P388. The experiment in a line: Antitumoral activity was assayed against P-388 cell line. Conditions: Mus musculus.

The IC50 is the concentration at which inhibition is half-maximal. With `CC1=CCC2C(C)(C)CCC[C@]2(C)[C@H]1CC1=CC(=O)C=CC1=O` (some centres not stated), the IC50 with A549 was 3.2 µM; in the test on HT-29, 3.2 µM; with SK-MEL-28, 3.2 µM; in the test with P388, 0.8 µM.

Turning to `CC1(C)CCC[C@@]2(C)C1CC[C@@]1(C)Oc3ccc(O)cc3C[C@@H]12` (some centres not stated), the IC50 in the test on A549, in the test with HT-29, with SK-MEL-28 and with P388 was 15.9 µM each time.

In the case of `CC1=CCC2C(C)(C)CCC[C@]2(C)[C@H]1Cc1cc(O)ccc1O` (some centres not stated), the IC50 with A549 amounted to 0.79 µM; in the test with HT-29 it was 0.79 µM; in the test with SK-MEL-28, 0.79 µM; in the test on P388, 0.16 µM.
